The text below walks through data of patent US10604514B2, “6-(5-membered heteroaryl)isoquinolin-3-yl carboxamides and preparation and use thereof” (Samumed, LLC, priority 2017, dated 2020).

Like-named read-outs stand apart in the source and are kept apart here. A value given as a limit tells only on which side of the number the result lay.

One assay addresses DYRK1A kinase (Homo sapiens (Human), UniProt Q13627). Description: DYRK1A kinase assay (Ser/Thr 18 peptide Z-lyte, FRET). The settings on record: DYRK1A kinase; method text calls the value IC50.
In the next assay the test system is IL-6. Description: IL-6 inhibition in LPS-stimulated human peripheral blood mononuclear cells (HTRF). Type of assay: cell-based. The settings on record: Homo sapiens, PBMC; for inhibition at 10 µM: read-out: percent value in parentheses below EC50 >10; for EC50: IL-6, LPS-stimulated huPBMCs, HTRF. The essentials: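 Fresh human PBMCs (5000 cells/well, 1% FBS RPMI) preincubated with compound (10-point 1:3 series from 10 μM, 0.25% DMSO) 2 h at 37 °C, then stimulated with 50 ng/mL E. coli LPS for 22 h. IL-6 by HTRF 665/620 ratio; DMSO-normalized, EC50 from 4-parameter fit.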
A general note: Time-resolved FRET reads energy transfer from a long-lived donor to a nearby acceptor.

The target in another assay is GSK3β kinase (Homo sapiens (Human), UniProt P49841). Description: GSK3β kinase assay (Ser/Thr 09 peptide Z-lyte, FRET).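 Note: Coumarin/fluorescein emission ratio converted to percent phosphorylation against unphosphorylated (0%) and phosphorylated (100%) controls, 1 h compound incubation at room temperature, 11-point threefold dilutions from 10 µM, run in duplicate.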 Type of assay: biochemical. The note with it: method text calls the value IC50.
In assay [1] the test system is SW480 colon carcinoma cells. Description: Cell viability assay (CellTiter-Glo) in SW480 cells.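 Note: SW480 cells stably carrying an Sp5-luciferase TCF/LEF reporter, luminescent ATP signal as viability measure, DMSO-treated cells as control.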 Type of assay: cell-based, human. (Cellular ATP, detected with luciferase, serves as a proxy for viable cell number.)
Assay [2] has as its system LL29 cells (primary human fibroblasts derived from IPF patients), α-smooth muscle actin. Description: Inhibition of fibrotic process: αSMA in TGF-β1-treated primary human fibroblasts from IPF patients (LL29 cells). Type of assay: cell-based. The note with it: Homo sapiens, Fibroblast; for EC50: 96 h, % αSMA-positive LL29 cells, TGF-β1 20 ng/mL, 4 days; for inhibition at 10 µM: read-out: percent inhibition at 10 μM. In short, it runs like this: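 IPF-patient lung fibroblasts (LL29) were stimulated with TGF-β1 (20 ng/mL) in 1% FBS medium with compound (11-point 1:2 series, 0.1% DMSO) for 4 days at 37 °C. Fixed cells were immunostained for αSMA and imaged, excluding SYTOX-positive dead cells. The % αSMA-positive cells was normalized to TGF-β1/DMSO control wells.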

Setting [3] is: Homo sapiens, 96 h; cell viability, SW480 cells, four days, CellTiter-Glo.
Where [4] appears, read: Homo sapiens, SW480, read-out: percent inhibition at 10 μM.
[5] abbreviates: Homo sapiens, SW480; read-out: percent inhibition at 10 μM.

A word on the EC50: it is the concentration giving half of the maximal effect. A lower EC50 goes with a more potent agent.

Chain of GSK3β kinase (P49841 whole entry): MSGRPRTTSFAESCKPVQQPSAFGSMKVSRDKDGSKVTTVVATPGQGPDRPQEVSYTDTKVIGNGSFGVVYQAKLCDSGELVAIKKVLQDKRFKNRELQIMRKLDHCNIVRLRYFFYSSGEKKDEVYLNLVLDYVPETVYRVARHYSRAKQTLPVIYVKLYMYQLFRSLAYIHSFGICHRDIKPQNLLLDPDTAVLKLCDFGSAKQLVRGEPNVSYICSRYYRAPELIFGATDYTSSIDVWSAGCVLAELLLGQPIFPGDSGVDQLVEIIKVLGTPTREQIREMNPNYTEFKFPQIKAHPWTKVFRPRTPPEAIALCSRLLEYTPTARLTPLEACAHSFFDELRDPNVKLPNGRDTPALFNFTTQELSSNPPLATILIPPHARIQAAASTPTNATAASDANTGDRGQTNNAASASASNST

As to `Cc1nnc(-c2ccc3cnc(NC(=O)N4[C@@H]5CC[C@H]4C[C@@H](NCCC(F)(F)F)C5)cc3c2)s1` [Compound 195, (1R,5S)-cis-N-(6-(5-methyl-1,3,4-thiadiazol-2-yl)isoquinolin-3-yl)-3-((3,3,3-trifluoropropyl)amino)-8-azabicyclo[3.2.1]octane-8-carboxamide], the EC50 at DYRK1A kinase is 5 nM; with IL-6 it was above 10000 nM; on GSK3β kinase, 1250 nM; in assay [1] (setting [3]) it was above 10000 nM; in assay [2] it was above 10000 nM. The inhibition at 10 µM with IL-6 was determined as 23.4%; in assay [1] (setting [4]), 13%; in assay [2] it was 23.4%.
For `CN1CC2CCC(C1)N2C(=O)Nc1cc2cc(-c3cnn(C)c3)ccc2cn1` [Compound 61, 3-Methyl-N-(6-(1-methyl-1H-pyrazol-4-yl)isoquinolin-3-yl)-3,8-diazabicyclo[3.2.1]octane-8-carboxamide], the EC50 is 7 nM on DYRK1A kinase; above 10000 nM with IL-6; 9210 nM at GSK3β kinase; above 10000 nM in assay [1] (setting [3]); 2770 nM in assay [2]. For the same compound, the results for the inhibition at 10 µM (in the assay with IL-6; in assay [1] (setting [4])) were 5.2% and 13.1%, respectively.
On to `Cc1nnc(-c2ccc3cnc(NC(=O)N4[C@@H]5CC[C@H]4C[C@H](NCCC(F)(F)F)C5)cc3c2)s1` [Compound 153, (1R,5S)-N-(6-(5-Methyl-1,3,4-thiadiazol-2-yl)isoquinolin-3-yl)-3-exo-((3,3,3-trifluoropropyl)amino)-8-azabicyclo[3.2.1]octane-8-carboxamide], for which the EC50 at DYRK1A kinase is 28 nM; with IL-6, above 10000 nM; on GSK3β kinase it was 532 nM; in assay [1] (setting [3]) it was above 10000 nM; in assay [2] it was above 10000 nM. For the same compound, the inhibition at 10 µM turned out to be 9% in the assay on IL-6, 0% in assay [1] (setting [4]) and 9% in assay [2].
Take `Cc1nnc(-c2ccc3cnc(NC(=O)[C@H]4CC[C@H](N(C)C)CC4)cc3c2)s1` [Compound 22, trans-4-(Dimethylamino)-N-(6-(5-methyl-1,3,4-thiadiazol-2-yl)isoquinolin-3-yl)cyclohexane-1-carboxamide]: the EC50 at DYRK1A kinase came to 5 nM; in the assay with IL-6 it was 6660 nM; on GSK3β kinase, 22 nM; in assay [1] (setting [3]) it was 2050 nM; in assay [2], 602 nM.
Turning to `COCCN[C@H]1CC[C@H](C(=O)Nc2cc3cc(-c4cnc(C)o4)ccc3cn2)CC1` [Compound 106, trans-4-((2-Methoxyethyl)amino)-N-(6-(2-methyloxazol-5-yl)isoquinolin-3-yl)cyclohexane-1-carboxamide], the EC50 at DYRK1A kinase was found to be 17 nM; in the assay with IL-6, 1110 nM; on GSK3β kinase it was 320 nM; in assay [1] (setting [3]), 2960 nM; in assay [2] it was 707 nM.
Regarding `Cc1nnc(-c2cc(F)c3cnc(NC(=O)N(C)C4CCN(C)CC4)cc3c2)s1` [Compound 227, 3-(8-Fluoro-6-(5-methyl-1,3,4-thiadiazol-2-yl)isoquinolin-3-yl)-1-methyl-1-(1-methylpiperidin-4-yl)urea], the half-maximal effective concentration (EC50) on DYRK1A kinase is 24 nM; with IL-6, above 10000 nM; on GSK3β kinase, 4500 nM; in assay [1] (setting [3]), above 10000 nM. The inhibition at 10 µM is 4.9% in the assay with IL-6 and 1.9% in assay [1] (setting [5]).
As to `CN1CCC(N(C)C(=O)Nc2cc3cc(-c4cnn(C)c4)cc(F)c3cn2)CC1` [Compound 230, 3-(8-Fluoro-6-(1-methyl-1H-pyrazol-4-yl)isoquinolin-3-yl)-1-methyl-1-(1-methylpiperidin-4-yl)urea], the half-maximal effective concentration (EC50) on DYRK1A kinase was 21 nM; in the assay with IL-6, above 10000 nM; at GSK3β kinase it was 3640 nM; in assay [1] (setting [3]), above 10000 nM; in assay [2] it was 6330 nM. Further, the inhibition at 10 µM came out at 36.6% in the assay with IL-6 and 31.9% in assay [1] (setting [5]).
Take `C[C@@H]1CN(C(=O)Nc2cc3cc(-c4cnn(C)c4)ccc3cn2)CCN1C` [Compound 67, (R)-3,4-Dimethyl-N-(6-(1-methyl-1H-pyrazol-4-yl)isoquinolin-3-yl) piperazine-1-carboxamide]: the EC50 was 7 nM on DYRK1A kinase; above 10000 nM with IL-6; 1870 nM at GSK3β kinase; 3990 nM in assay [1] (setting [3]); above 10000 nM in assay [2]. Moreover, the results for the inhibition at 10 µM (in the assay on IL-6; in assay [2]) were 29.6% and 5.2%, respectively.
For `Cc1nnc(-c2ccc3cnc(NC(=O)N4C5CCC4CN(C)C5)cc3c2)s1` [Compound 108, 3-Methyl-N-(6-(5-methyl-1,3,4-thiadiazol-2-yl)isoquinolin-3-yl)-3,8-diazabicyclo[3.2.1]octane-8-carboxamide], the EC50 on DYRK1A kinase was 10 nM; with IL-6, above 10000 nM; on GSK3β kinase, 671 nM; in assay [1] (setting [3]), above 10000 nM; in assay [2] it was above 10000 nM. The figures for the inhibition at 10 µM (in the assay with IL-6; in assay [1] (setting [4]); in assay [2]) were 4.1%, 7.8% and 18.2%, respectively.
`Cc1cn2c(n1)CN(C(=O)Nc1cc3cc(-c4nnc(C)s4)ccc3cn1)CC2` [Compound 58, 2-Methyl-N-(6-(5-methyl-1,3,4-thiadiazol-2-yl)isoquinolin-3-yl)-5,6-dihydroimidazo[1,2-a]pyrazine-7(8H)-carboxamide]: the EC50 on DYRK1A kinase is 6 nM; with IL-6, 9570 nM; at GSK3β kinase, 7 nM; in assay [1] (setting [3]), 547 nM; in assay [2], 788 nM.
Take `Cc1ncc(-c2ccc3cnc(NC(=O)N(C)C4CCN(C)CC4)cc3c2)o1` [Compound 231, 1-Methyl-3-(6-(2-methyloxazol-5-yl)isoquinolin-3-yl)-1-(1-methylpiperidin-4-yl)urea]: the EC50 on DYRK1A kinase was 16 nM; with IL-6 it was 8280 nM; at GSK3β kinase it was 2820 nM; in assay [1] (setting [3]), above 10000 nM; in assay [2], 2950 nM. In assay [1] (setting [5]), the inhibition at 10 µM was found to be 41.6%.
Turning to `COCCN[C@H]1CC[C@H](C(=O)Nc2cc3cc(-c4cnn(C)c4)ccc3cn2)CC1` [Compound 196, trans-4-((2-Methoxyethyl)amino)-N-(6-(1-methyl-1H-pyrazol-4-yl)isoquinolin-3-yl)cyclohexane-1-carboxamide], the EC50 at DYRK1A kinase worked out at 6 nM; with IL-6, 1210 nM; on GSK3β kinase, 194 nM; in assay [1] (setting [3]) it was 6110 nM; in assay [2] it was 184 nM.
With `Cc1ncc(-c2ccc3cnc(NC(=O)[C@H]4CC[C@H](NCCF)CC4)cc3c2)o1` [Compound 155, trans-4-((2-fluoroethyl)amino)-N-(6-(2-methyloxazol-5-yl)isoquinolin-3-yl) cyclohexane-1-carboxamide], the half-maximal effective concentration (EC50) turned out to be 8 nM at DYRK1A kinase; 1060 nM in the assay with IL-6; 668 nM on GSK3β kinase; 807 nM in assay [1] (setting [3]); 1060 nM in assay [2].
As to `CN1CCC(N(C)C(=O)Nc2cc3cc(-c4cn(C)nn4)cc(F)c3cn2)CC1` [Compound 228, 3-(8-Fluoro-6-(1-methyl-1H-1,2,3-triazol-4-yl)isoquinolin-3-yl)-1-methyl-1-(1-methylpiperidin-4-yl)urea], the EC50 was 12 nM on DYRK1A kinase; above 10000 nM with IL-6; 255 nM at GSK3β kinase; above 10000 nM in assay [1] (setting [3]); 9980 nM in assay [2]. Moreover, the inhibition at 10 µM in the assay with IL-6 amounted to 3.3%.
